Data reported in patent US20230391765A1, “HETEROBIFUNCTIONAL COMPOUNDS AS DEGRADERS OF ENL” (ICAHN SCHOOL OF MEDICINE AT MOUNT SINAI, priority 2020, published 2023).

Legend:
[1] = tested on: MV4; 11-Luc cells; experiment: MV4; 11 disseminated xenograft model, bioluminescence imaging; assay type: in vivo; settings: NSG mice with MV4, 100 mg/kg twice daily IP, three cycles (4 treatment days, 2 resting days)
Procedure: Immuno-deficient NSG mice were irradiated and transplanted with 5×10^5 MV4; 11-Luc cells through tail-vein injections. Ten days after transplantation, mice (n=5) were treated with 100 mg/kg LQ076-122 or vehicle twice daily through IP injection in cycles. Each cycle contains 4 treatment days followed by 2 resting days. Day 0 is the time that the treatment started. Leukemia progression was monitored by bioluminescence imaging at different time points upon LQ076-122 or vehicle treatment (FIG. 18A). The mean radiances of bioluminescence signal were quantified in FIG. 18B.
Immunodeficient NOD.Cg-Prkdc^scidIl2rg^tm1wil/SzJ (NSG) mice at 6-8 weeks of age were produced at the Van Andel Institute Vivarium and Transgenic Core using breeders purchased from the Jackson laboratory. Mice were pretreated with acidified water and antibiotics for a week before a sublethal dose of total body irradiated (2 Gy). Then mice were transplanted with 0.5×10^6 MV4; 11-Luc cells through tail-vein injection. ENL degrader treatment was started ten days after transplantation with the successful engraftment confirmed by bioluminescence imaging. Mice were randomly assigned to two groups (n=5) and treated with IP injections of either ENL degrader LQ076-122 (100 mg/kg, twice daily) or vehicle. […] Leukemia progression in each animal was monitored by bioluminescence imaging after each treatment cycle. […]

[2] = tested on: ENL-dependent MOLM13 leukemia cells; experiment: Cell viability (CellTiter-Glo), MOLM13 cells; assay type: cell-based; settings: MOLM13 cells, 0.5, 1, 2 and 4 μM for 72 h
Procedure: MV4; 11 (FIG. 13A), MOLM13 (FIG. 13B) and Jurkat (FIG. 13C) cells were seeded at 2×10^5 cells/mL density and treated with DMSO or indicated compounds 0.5, 1, 2 and 4 μM for 72 h. Cell viability was measured using CellTiter-Glo reagent (Promega) and relative cell viability was calculated by normalization to DMSO samples.
MV4; 11 or MOLM13 cells were seeded at 0.2×10^6 cells/mL density. Cells were treated with DMSO or ENL degraders at indicated concentrations. Each treatment was done in triplicates. After 72 h treatment, 100 μL of cell suspension from each treatment was mixed with 25 μL of CellTiter-Glo reagent (Promega) and incubated for 10 min before the luminescence signals were detected on a plate reader.

[3] = tested on: ENL target genes; experiment: RT-qPCR of ENL target genes in MV4; 11 cells; assay type: cell-based; settings: 11 cells, 1, 2 and 4 μM for 6, 12, 18 and 24 h
Procedure: MV4; 11 cells were treated with DMSO, or LQ076-122 at 1, 2, and 4 μM for 6, 12, 18 and 24 h. RT-qPCR analysis was performed to detect the mRNA levels of selected ENL target genes.
Total RNA was extracted using the RNeasy Plus kit (Qiagen) and reverse-transcribed using the iScript cDNA Synthesis kit (Bio-Rad). RT-qPCR was performed using the Power SYBR Green PCR Master Mix (Applied Biosystems) on the CFX96 Real-Time PCR system (Bio-Rad). Gene expressions were calculated following normalization to 18s rRNA amounts using the comparative cycle threshold (Ct) method.

[4] = molecular target: T1, GAS41 (Homo sapiens, UniProt O95619); experiment: Western blot of GAS41 protein level in MV4; 11 cells; assay type: cell-based; settings: 11 cells, 0.3, 1, 3, 10 and 30 μM for 24 h
T1 construct: host or cells: MV4;11
Procedure: MV4; 11 cells were treated with LQ076-122, or LQ081-107 at 0.3, 1, 3, 10, and 30 μM for 24 h. DMSO treated cells were used as control. Cells were lysed and expression of ENL and GAS41 was assessed by Western analysis.
After ENL degrader treatment, cells were collected, lysed, and total cell lysates were used for Western blot. The following primary antibodies were used: ENL (Cell Signaling Technology), GAS41 (Santa Cruz), GAPDH (Santa Cruz), β-actin (Sigma). Blots were detected using HRP-conjugated secondary antibodies.

[5] = tested on: ENL-dependent MV4; 11 cells; experiment: Cell viability (CellTiter-Glo), MV4; 11 cells; assay type: cell-based; settings: 11 cells, 0.5, 1, 2 and 4 μM for 72 h
Outline: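 MV4;11 cells (ENL-dependent) were seeded at 2×10^5 cells/mL and exposed to compound or DMSO, mostly for 72 h, with some runs at 3 or 6 days. Concentrations ranged from 10 nM to 10 μM depending on the run. Viability was read by CellTiter-Glo luminescence and normalized to DMSO.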

[6] = tested on: MOLM13 cells; experiment: Apoptosis assay (FITC Annexin V), MOLM13 cells; assay type: cell-based; settings: MOLM13 cells, 1, 2 and 4 μM for 24 h
Procedure: (§1) Apoptotic cells were measured by the FITC Annexin V Apoptosis Detection Kit (BD Biosciences).
(§2) MV4; 11 or MOLM13 cells were seeded at 0.2×10^6 cells/mL density. Cells were treated with DMSO or ENL degraders at indicated concentrations. Each treatment was done in triplicates. After 24 h treatment, cells were collected and washed with ice-cold PBS once and resuspended in 250 μL of 1× binding buffer containing 5 μL of FITC-Annexin V and PI (BD Biosciences). After 15 min incubation at room temperature in the dark, 250 μL of 1× binding buffer was added and flow cytometry analysis was performed.

[7] = tested on: MV4; 11 cells; experiment: Apoptosis assay (FITC Annexin V), MV4; 11 cells; assay type: cell-based; settings: 11 cells, 1, 2 and 4 μM for 24 h
Procedure: as §1, §2

T1 sequence (O95619 whole entry): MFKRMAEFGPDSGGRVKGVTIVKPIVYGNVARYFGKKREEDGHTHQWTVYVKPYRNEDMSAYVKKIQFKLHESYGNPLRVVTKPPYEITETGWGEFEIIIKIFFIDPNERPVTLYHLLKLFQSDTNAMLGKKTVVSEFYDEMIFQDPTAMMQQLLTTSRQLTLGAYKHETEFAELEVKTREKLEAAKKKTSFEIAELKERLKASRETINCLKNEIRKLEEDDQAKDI

For `Cc1ncsc1-c1ccc(CNC(=O)[C@@H]2C[C@@H](O)CN2C(=O)[C@@H](NC(=O)CCCCCCCCCCNC(=O)c2ccc(C(=O)Nc3ccc4[nH]c(CN5CCC[C@@H]5C)nc4c3)cc2)C(C)(C)C)cc1` [LQ076-122, N^1-(11-(((S)-1-((2S,4R)-4-hydroxy-2-((4-(4-methylthiazol-5-yl)benzyl)carbamoyl)pyrrolidin-1-yl)-3,3-dimethyl-1-oxobutan-2-yl)amino)-11-oxoundecyl)-N^4-(2-(((S)-2-methylpyrrolidin-1-yl)methyl)-1H-benzo[d]imidazol-5-yl)terephthalamide], the leukemia progression [1] was “significantly inhibited leukemia progression”, the “suppression of cell growth (relative cell viability)” value [2] was “selectively suppressed cell growth” and the “ENL target gene expression (mRNA levels)” value [3] was “reduced ENL target gene expression in a concentration- and time-dependent manner”. For the same molecule, the “reduction of GAS41 protein level” value [4] was “but not the level of another YEATS domain-containing protein GAS41”, the “suppression of cell growth (relative cell viability)” value [5] was “selectively suppressed cell growth” and the induction of apoptosis [6] was “induced apoptosis”. The induction of apoptosis [7] was “induced apoptosis”.
